Reference: patent US12077503B2, “Substituted cyclic amides and their use as herbicides” (FMC CORPORATION, priority 2015, dated 2024)

How the values were obtained:
Format in all cases: in vivo
[1] = system: barnyardgrass (Echinochloa crus-galli); test: Test B flooded paddy test; settings: Echinochloa crus-galli, 250 g ai/ha, Flood; 0 to 100 scale where 0 is no effect and 100 is complete control; read-out: Barnyardgrass plant response rating
Outline: (§1)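 2-leaf plants; pots flooded 3 cm over soil; cpd added to paddy water; depth held; greenhouse 13–15 d; visual rating vs controls, 0 = no effect, 100 = complete control.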

[2] = system: ducksalad (Heteranthera limosa); test: Test B flooded paddy test; settings: Heteranthera limosa, 250 g ai/ha, Flood; 0 to 100 scale where 0 is no effect and 100 is complete control; read-out: Ducksalad plant response rating
Outline: as §1

[3] = system: sedge, umbrella (small-flower umbrella sedge, Cyperus difformis); test: Test B flooded paddy test; settings: Cyperus difformis, 250 g ai/ha, Flood; 0 to 100 scale where 0 is no effect and 100 is complete control; read-out: Sedge, Umbrella plant response rating
Outline: as §1

rice (Oryra sativa) = test: Test B flooded paddy test; settings: Oryza sativa, 250 g ai/ha, Flood; 0 to 100 scale where 0 is no effect and 100 is complete control; read-out: Rice plant response rating
Outline: as §1

[4] = system: barnyardgrass (Echinochloa crus-galli); test: Test A preemergence; settings: Echinochloa crus-galli, pre-emergence, 240 h
Outline: (§2)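 Seeded soil received test chemicals as a preemergence directed spray, and seedlings at one to two leaves, 2–10 cm tall, received them postemergence, in a non-phytotoxic, surfactant-containing solvent mixture. Pots were held in a greenhouse for approximately 10 d, then rated for injury from 0, no effect, to 100, complete control.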

[5] = system: giant foxtail (Setaria faberii); test: Test A preemergence; settings: Setaria faberi, pre-emergence, 240 h
Outline: as §2

Kochia (Kochia scoparia) [6] = test: Test A preemergence; settings: Bassia scoparia, pre-emergence, 240 h
Outline: as §2

[7] = system: ragweed (common ragweed, Ambrosia elatior); test: Test A preemergence; settings: Ambrosia artemisiifolia, pre-emergence, 240 h
Outline: as §2

[8] = system: ryegrass, Italian (Italian ryegrass, Lolium multiflorum); test: Test A preemergence; settings: Lolium multiflorum, pre-emergence, 240 h
Outline: as §2

[9] = system: pigweed (Amaranthus retroflexus); test: Test A preemergence; settings: Amaranthus retroflexus, pre-emergence, 240 h
[10] = system: barnyardgrass (Echinochloa crus-galli); test: Test A postemergence; settings: Echinochloa crus-galli, post-emergence, 240 h, read-out: Plant response rating, Barnyardgrass
Outline: as §2

[11] = system: giant foxtail (Setaria faberii); test: Test A postemergence; settings: Setaria faberi, post-emergence, 240 h, read-out: Plant response rating, Foxtail, Giant
Outline: as §2

Kochia (Kochia scoparia) [12] = test: Test A postemergence; settings: Bassia scoparia, post-emergence, 240 h, read-out: Plant response rating, Kochia
Outline: as §2

[13] = system: blackgrass (Alopecurus myosuroides); test: Test A postemergence; settings: Alopecurus myosuroides, post-emergence, 240 h, read-out: Plant response rating, Blackgrass
Outline: as §2

[14] = system: Galium (catchweed bedstraw, Galium aparine); test: Test A postemergence; settings: Galium, post-emergence, 240 h, read-out: Plant response rating, Galium
Outline: as §2

corn (Zea mays) = test: Test A postemergence; settings: Zea mays, post-emergence, 240 h
Outline: as §2

[15] = system: ragweed (common ragweed, Ambrosia elatior); test: Test A postemergence; settings: Ambrosia artemisiifolia, post-emergence, 240 h, read-out: Plant response rating, Ragweed
Outline: as §2

[16] = system: ryegrass, Italian (Italian ryegrass, Lolium multiflorum); test: Test A postemergence; settings: Lolium multiflorum, post-emergence, 240 h, read-out: Plant response rating, Ryegrass, Italian
Outline: as §2

[17] = system: pigweed (Amaranthus retroflexus); test: Test A postemergence; settings: Amaranthus retroflexus, post-emergence, 240 h, read-out: Plant response rating, Pigweed
Outline: as §2

[18] = system: wheat (Triticum aestivum); test: Test A postemergence; settings: Triticum aestivum, post-emergence, 240 h, read-out: Plant response rating, Wheat
Outline: as §2

[19] = 125 g ai/ha, Postemergence, visual injury after approximately 10 d, 0 to 100 scale where 0 is no effect and 100 is complete control
[20] = 500 g ai/ha, postemergence, visual injury, 0 to 100 scale (0 no effect, 100 complete control), approx. 10 d

Compound: CN1CC[C@H](c2ccc(OC(F)(F)F)cc2)[C@@H](C(=O)Nc2cccc(Cl)c2F)C1=O [Compound 1002]
- pest or weed control at 250 g/ha [1]: 0%
- pest or weed control at 250 g/ha [2]: 60%
- pest or weed control at 250 g/ha [3]: 0%
- pest or weed control at 250 g/ha (rice (Oryra sativa)): 0%
- pest or weed control at 125 g/ha ([4]; 125 g ai/ha, Preemergence, visual injury rating after approximately 10 d, read-out: Barnyardgrass plant response rating (0 to 100 scale, 0 is no effect, 100 is complete control)): 20%
- pest or weed control at 500 g/ha ([4]; 500 g ai/ha, preemergence, visual injury rating about 10 d after treatment, 0 to 100 scale (0 no effect, 100 complete control), read-out: Barnyardgrass plant response rating): 70%
- pest or weed control at 125 g/ha ([5]; 125 g ai/ha, Preemergence, visual injury rating after approximately 10 d, read-out: Foxtail, Giant plant response rating (0 to 100 scale, 0 is no effect, 100 is complete control)): 30%
- pest or weed control at 500 g/ha ([5]; 500 g ai/ha, preemergence, visual injury rating about 10 d after treatment, 0 to 100 scale (0 no effect, 100 complete control), read-out: Foxtail, Giant plant response rating): 80%
- pest or weed control at 125 g/ha (Kochia (Kochia scoparia) [6]; 125 g ai/ha, Preemergence, visual injury rating after approximately 10 d, read-out: Kochia plant response rating (0 to 100 scale, 0 is no effect, 100 is complete control)): 0%
- pest or weed control at 500 g/ha (Kochia (Kochia scoparia) [6]; 500 g ai/ha, preemergence, visual injury rating about 10 d after treatment, 0 to 100 scale (0 no effect, 100 complete control), read-out: Kochia plant response rating): 0%
- pest or weed control at 125 g/ha ([7]; 125 g ai/ha, Preemergence, visual injury rating after approximately 10 d, read-out: Ragweed plant response rating (0 to 100 scale, 0 is no effect, 100 is complete control)): 0%
- pest or weed control at 500 g/ha ([7]; 500 g ai/ha, preemergence, visual injury rating about 10 d after treatment, 0 to 100 scale (0 no effect, 100 complete control), read-out: Ragweed plant response rating): 0%
- pest or weed control at 125 g/ha ([8]; 125 g ai/ha, Preemergence, visual injury rating after approximately 10 d, read-out: Ryegrass, Italian plant response rating (0 to 100 scale, 0 is no effect, 100 is complete control)): 0%
- pest or weed control at 500 g/ha ([8]; 500 g ai/ha, preemergence, visual injury rating about 10 d after treatment, 0 to 100 scale (0 no effect, 100 complete control), read-out: Ryegrass, Italian plant response rating): 0%
- pest or weed control at 125 g/ha ([9]; 125 g ai/ha, Preemergence, visual injury rating after approximately 10 d, read-out: Pigweed plant response rating (0 to 100 scale, 0 is no effect, 100 is complete control)): 20%
- pest or weed control at 500 g/ha ([9]; 500 g ai/ha, preemergence, visual injury rating about 10 d after treatment, 0 to 100 scale (0 no effect, 100 complete control), read-out: Pigweed plant response rating): 50%
- pest or weed control at 125 g/ha [10, 19]: 50%
- pest or weed control at 500 g/ha [10, 20]: 90%
- pest or weed control at 125 g/ha [11, 19]: 0%
- pest or weed control at 500 g/ha [11, 20]: 50%
- pest or weed control at 125 g/ha (Kochia (Kochia scoparia) [12]; [19]): 0%
- pest or weed control at 500 g/ha (Kochia (Kochia scoparia) [12]; [20]): 40%
- pest or weed control at 125 g/ha [13, 19]: 0%
- pest or weed control at 500 g/ha [13, 20]: 0%
- pest or weed control at 125 g/ha [14, 19]: 0%
- pest or weed control at 500 g/ha [14, 20]: 0%
- Corn plant response rating (crop injury, 0 = no effect, 100 = complete kill) at 125 g/ha (corn (Zea mays); [19]): 0%
- Corn plant response rating (crop injury, 0 = no effect, 100 = complete kill) at 500 g/ha (corn (Zea mays); [20]): 0%
- pest or weed control at 125 g/ha [15, 19]: 0%
- pest or weed control at 500 g/ha [15, 20]: 0%
- pest or weed control at 125 g/ha [16, 19]: 0%
- pest or weed control at 500 g/ha [16, 20]: 0%
- pest or weed control at 125 g/ha [17, 19]: 0%
- pest or weed control at 500 g/ha [17, 20]: 0%
- plant injury at 125 g/ha [18, 19]: 0%
- plant injury at 500 g/ha [18, 20]: 0%
